{
  "source": "patent US5744298A",
  "about": "“DNA sequences which encode immunoreactive HCMV-specific peptides” (Behringwerke Aktiengesellschaft, priority 1991, dated 1998)",
  "key": {"CMV IgG-positive sera": {"system": "CMV IgG-positive sera", "assay": "ELISA of peptide-coated microtiter plates with CMV IgG-positive human sera (localization of epitopes)", "assay_type": "binding", "conditions": "plate coated with 2.5 μg peptide per ml, serum dilution 1:2; for Reactivity (individual reactivities of particularly reactive peptides with the assayed group of CMV IgG-positive sera, in percent): Table 3", "method": "A microtiter plate with 96 wells was coated with a synthesized peptide. To do this, a solution of 2.5 μg of peptide per ml of carbonate buffer was made up and introduced in 100 μl portions into the wells for the coating. The peptides were adsorbed onto the surfaces at 4° C. overnight and, after removal of the peptide solution, the wells were washed several times with washing buffer (50 mM Tris, pH 7.2, 10 mM EDTA, 0.2% Tween 20). Then individual human serum samples in a 1:2 dilution were introduced and incubated at 37° C. for 1 hour. After another washing step, the conjugate antibody specific for human IgG antibodies or human IgM antibodies and labeled with peroxidase was added and the mixture was incubated at room temperature for 0.5 hour. The reaction was subsequently stopped by adding 0.5M sulfuric acid and extinction of the individual samples was measured at a wavelength of 450/650 nm in a photometer.\nTo test the immunogenicity, peptides of various length from the complete amino-acid sequence region from 718 to 880 of the HCMV protein pp150 (Tab. 2 and 3) were synthesized as described in Example 1. Subsequently, as in Example 2, the microtiter plates were coated with the synthesized peptides, and the immunological reactivity was assayed. […] The three immunologically reactive peptides have the following sequences: […]"}, "[1]": {"system": "monoclonal antibody 87-55/02", "assay": "Reaction of the monoclonal antibody 87-55/02 with peptide epitopes (ELISA, immunoblot)", "assay_type": "binding", "conditions": "measured as immunoblot and ELISA reactivity", "description": "It was concluded from the method for selecting the monoclonal antibody that the identified epitope must have a very important structure which is not even destroyed by denaturation of the complete protein. This monoclonal antibody correspondingly reacts both with the synthesized peptide 2.7 (SEQ ID NO:26) and with the recombinant protein XP1 (SEQ ID NO:33) and the pp150 protein of HCMV."}},
  "note": "Where no end group is shown, it is not given here.",
  "data": [
    {"molecule": "ala tyr lys phe glu gln pro thr leu thr phe gly ala gly val asn val pro ala gly ala gly ala ala ile leu thr pro thr pro val asn pro ser thr ala pro ala pro ala pro (AYKFGQPTLTFGAGVNVPAGAGAAILTPTPVNPSTAPAPAP) [Peptide 1.13]", "values": [
      {"measurement": "Reactivity (individual reactivities of particularly reactive peptides with the assayed group of CMV IgG-positive sera, in percent)", "setting": "CMV IgG-positive sera", "value": 90, "unit": "%"}
    ]},
    {"molecule": "phe glu gln pro thr leu thr phe gly ala gly val asn val pro ala gly ala gly ala ala ile leu thr pro thr pro val asn pro ser thr ala pro ala pro ala (FEQPTTLTFGAGVNVPAGAGAAILTPTPVNPSTAPAPA) [Peptide 1.4]", "values": [
      {"measurement": "Reactivity (individual reactivities of particularly reactive peptides with the assayed group of CMV IgG-positive sera, in percent)", "setting": "CMV IgG-positive sera", "value": 90, "unit": "%"}
    ]},
    {"molecule": "pro thr leu thr phe gly ala gly val asn val pro ala gly ala gly ala ala ile leu thr pro thr pro val asn pro ser thr ala pro ala pro ala pro NH2 (PTLTFGAGVNVPAGAGAAILTPTPVNPSTAPAPAP-NH2) [Peptide 1.6]", "values": [
      {"measurement": "Reactivity (individual reactivities of the synthetic pXP1 segments with the assayed group of CMV IgG-positive sera, in percent)", "setting": "CMV IgG-positive sera; Table 2", "value": 90, "unit": "%"},
      {"measurement": "Reactivity (individual reactivities of particularly reactive peptides with the assayed group of CMV IgG-positive sera, in percent)", "setting": "CMV IgG-positive sera", "value": 90, "unit": "%"}
    ]},
    {"molecule": "HCMV protein pp150: HCMV protein pp150 (protein, UniProt P08318 1-1048, looked up) Large structural …: MSLQFIGLQRRDVVALVNFLRHLTQKPDVDLEAHPKILKKCGEKRLHRRTVLFNELMLWLGYYRELRFHNPDLSSVLEEFEVRCVAVARRGYTYPFGDRGKARDHLAVLDRTEFDTDVRHDAEIVERALVSAVILAKMSVRETLVTAIGQTEPIAFVHLKDTEVQRIEENLEGVRRNMFCVKPLDLNLDRHANTALVNAVNKLVYTGRLIMNVRRSWEELERKCLARIQERCKLLVKELRMCLSFDSNYCRNILKHAVENGDSADTLLELLIEDFDIYVDSFPQSAHTFLGARSPSLEFDDDANLLSLGGGSAFSSVPKKHVPTQPLDGWSWIASPWKGHKPFRFEAHGSLAPAAEAHAARSAAVGYYDEEEKRRERQKRVDDEVVQREKQQLKAWEERQQNLQQRQQQPPPPARKPSASRRLFGSSADEDDDDDDDEKNIFTPIKKPGTSGKGAASGGGVSSIFSGLLSSGSQKPTSGPLNIPQQQQRHAAFSLVSPQVTKASPGRVRRDSAWDVRPLTETRGDLFSGDEDSDSSDGYPPNRQDPRFTDTLVDITDTETSAKPPVTTAYKFEQPTLTFGAGVNVPAGAGAAILTPTPVNPSTAPAPAPTPTFAGTQTPVNGNSPWAPTAPLPGDMNPANWPRERAWALKNPHLAYNPFRMPTTSTASQNTVSTTPRRPSTPRAAVTQTASRDAADEVWALRDQTAESPVEDSEEEDDDSSDTGSVVSLGHTTPSSDYNNDVISPPSQTPEQSTPSRIRKAKLSSPMTTTSTSQKPVLGKRVATPHASARAQTVTSTPVQGRLEKQVSGTPSTVPATLLQPQPASSKTTSSRNVTSGAGTSSASSARQPSASASVLSPTEDDVVSPATSPLSMLSSASPSPAKSAPPSPVKGRGSRVGVPSLKPTLGGKAVVGRPPSVPVSGSAPGRLSGSSRAASTTPTYPAVTTVYPPSSTAKSSVSNAPPVASPSILKPGASAALQSRRSTGTAAVGSPVKSTTGMKTVAFDLSSPQKSGTGPQPGSAGMGGAKTPSDAVQNILQKIEKIKNTEE", "values": [
      {"measurement": "immunological reaction of monoclonal antibody 87-55/02 with protein", "setting": "[1]", "value": "unambiguous immunological reaction"}
    ]},
    {"molecule": "recombinant protein XP1: recombinant protein section, amino acid 718-880 of HCMV protein pp150 (protein) DPRFTDTLVDITDTETSAKPPVTTAYKFEQPTLTFGAGVNVPAGAGAAILTPTPVNPSTAPAPAPTPTFAGTQTPVNGNSPWAPTAPLPGDMNPANWPRERAWALKNPHLAYNPFRMPTTSTASQNTVSTTPRRPSTPRAAVTQTASRDAADEVWALRDQTA", "values": [
      {"measurement": "immunological reaction of monoclonal antibody 87-55/02 with protein", "setting": "[1]", "value": "reacts"}
    ]}
  ]
}
